Assay [1] has as its target Phosphatidylinositol 4-phosphate 5-kinase type-1 alpha (Homo sapiens, UniProt Q99755).
For assay [2], the target named is T1, Ephrin type-A receptor 3 (Homo sapiens, UniProt P29320).
T1 sequence (P29320 whole entry): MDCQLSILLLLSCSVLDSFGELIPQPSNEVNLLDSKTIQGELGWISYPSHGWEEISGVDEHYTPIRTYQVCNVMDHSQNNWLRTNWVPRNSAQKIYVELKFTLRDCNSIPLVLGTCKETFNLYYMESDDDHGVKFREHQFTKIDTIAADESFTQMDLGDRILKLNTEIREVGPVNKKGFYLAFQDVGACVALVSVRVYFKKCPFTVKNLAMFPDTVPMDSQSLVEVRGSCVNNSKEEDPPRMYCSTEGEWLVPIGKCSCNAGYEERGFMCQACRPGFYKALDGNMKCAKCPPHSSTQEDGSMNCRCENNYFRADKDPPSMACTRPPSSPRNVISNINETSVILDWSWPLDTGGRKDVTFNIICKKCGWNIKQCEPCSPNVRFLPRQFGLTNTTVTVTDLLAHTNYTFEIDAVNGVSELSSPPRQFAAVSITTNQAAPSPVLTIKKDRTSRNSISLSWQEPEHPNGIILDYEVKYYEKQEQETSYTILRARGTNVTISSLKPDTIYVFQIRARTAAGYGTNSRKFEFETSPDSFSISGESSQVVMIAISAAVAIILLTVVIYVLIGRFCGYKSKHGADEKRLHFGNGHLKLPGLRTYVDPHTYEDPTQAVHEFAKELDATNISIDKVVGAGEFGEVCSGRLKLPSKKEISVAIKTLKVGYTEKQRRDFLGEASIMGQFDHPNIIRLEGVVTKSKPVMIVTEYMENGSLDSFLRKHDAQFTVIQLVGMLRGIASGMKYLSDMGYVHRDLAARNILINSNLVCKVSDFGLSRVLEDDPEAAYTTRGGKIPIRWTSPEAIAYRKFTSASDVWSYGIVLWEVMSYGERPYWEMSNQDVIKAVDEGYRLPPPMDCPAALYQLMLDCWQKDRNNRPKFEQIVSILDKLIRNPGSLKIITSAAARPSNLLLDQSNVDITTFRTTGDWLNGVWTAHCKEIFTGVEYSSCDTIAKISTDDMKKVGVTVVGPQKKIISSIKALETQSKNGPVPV

In assay [3] the target is Serine/threonine-protein kinase 26 (Homo sapiens, UniProt Q9P289).
Sequence of Serine/threonine-protein kinase 26 (Q9P289 whole entry): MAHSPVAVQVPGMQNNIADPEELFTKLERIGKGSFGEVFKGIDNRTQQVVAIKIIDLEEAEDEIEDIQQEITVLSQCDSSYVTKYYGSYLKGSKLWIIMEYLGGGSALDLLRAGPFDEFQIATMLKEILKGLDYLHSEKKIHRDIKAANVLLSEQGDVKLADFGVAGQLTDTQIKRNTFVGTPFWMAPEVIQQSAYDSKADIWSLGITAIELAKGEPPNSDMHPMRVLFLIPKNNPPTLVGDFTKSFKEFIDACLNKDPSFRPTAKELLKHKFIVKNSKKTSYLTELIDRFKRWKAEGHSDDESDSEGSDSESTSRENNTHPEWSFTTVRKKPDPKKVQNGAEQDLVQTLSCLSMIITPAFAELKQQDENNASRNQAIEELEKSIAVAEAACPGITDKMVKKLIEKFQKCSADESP
Assay [4] has as its target T2, Serine/threonine-protein kinase BRSK1 (Homo sapiens, UniProt Q8TDC3).
T2 sequence (Q8TDC3 whole entry): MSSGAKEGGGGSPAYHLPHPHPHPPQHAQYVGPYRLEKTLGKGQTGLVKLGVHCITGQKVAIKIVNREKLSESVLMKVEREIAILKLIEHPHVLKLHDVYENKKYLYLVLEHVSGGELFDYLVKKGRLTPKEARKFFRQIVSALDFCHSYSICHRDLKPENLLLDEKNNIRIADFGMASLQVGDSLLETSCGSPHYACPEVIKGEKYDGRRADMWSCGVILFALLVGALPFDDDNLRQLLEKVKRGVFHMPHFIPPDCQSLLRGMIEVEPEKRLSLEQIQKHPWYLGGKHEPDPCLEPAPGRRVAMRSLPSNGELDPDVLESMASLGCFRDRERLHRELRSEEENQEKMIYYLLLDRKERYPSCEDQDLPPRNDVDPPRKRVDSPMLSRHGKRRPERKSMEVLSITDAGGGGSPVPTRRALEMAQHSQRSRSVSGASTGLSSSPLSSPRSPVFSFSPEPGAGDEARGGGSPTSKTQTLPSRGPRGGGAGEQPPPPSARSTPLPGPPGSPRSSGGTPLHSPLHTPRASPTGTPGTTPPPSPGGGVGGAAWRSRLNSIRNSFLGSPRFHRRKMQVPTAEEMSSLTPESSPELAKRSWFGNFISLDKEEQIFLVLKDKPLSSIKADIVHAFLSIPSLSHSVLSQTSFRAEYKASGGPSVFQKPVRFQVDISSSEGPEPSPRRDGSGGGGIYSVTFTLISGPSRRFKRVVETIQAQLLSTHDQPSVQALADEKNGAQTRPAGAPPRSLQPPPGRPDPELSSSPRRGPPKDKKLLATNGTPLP

Assay [5] addresses Serine/threonine-protein kinase 10 (Homo sapiens, UniProt O94804).
Assay [6] concerns the target T3, Serine/threonine-protein kinase LATS2 (Homo sapiens, UniProt Q9NRM7).
T3 sequence (Q9NRM7 whole entry): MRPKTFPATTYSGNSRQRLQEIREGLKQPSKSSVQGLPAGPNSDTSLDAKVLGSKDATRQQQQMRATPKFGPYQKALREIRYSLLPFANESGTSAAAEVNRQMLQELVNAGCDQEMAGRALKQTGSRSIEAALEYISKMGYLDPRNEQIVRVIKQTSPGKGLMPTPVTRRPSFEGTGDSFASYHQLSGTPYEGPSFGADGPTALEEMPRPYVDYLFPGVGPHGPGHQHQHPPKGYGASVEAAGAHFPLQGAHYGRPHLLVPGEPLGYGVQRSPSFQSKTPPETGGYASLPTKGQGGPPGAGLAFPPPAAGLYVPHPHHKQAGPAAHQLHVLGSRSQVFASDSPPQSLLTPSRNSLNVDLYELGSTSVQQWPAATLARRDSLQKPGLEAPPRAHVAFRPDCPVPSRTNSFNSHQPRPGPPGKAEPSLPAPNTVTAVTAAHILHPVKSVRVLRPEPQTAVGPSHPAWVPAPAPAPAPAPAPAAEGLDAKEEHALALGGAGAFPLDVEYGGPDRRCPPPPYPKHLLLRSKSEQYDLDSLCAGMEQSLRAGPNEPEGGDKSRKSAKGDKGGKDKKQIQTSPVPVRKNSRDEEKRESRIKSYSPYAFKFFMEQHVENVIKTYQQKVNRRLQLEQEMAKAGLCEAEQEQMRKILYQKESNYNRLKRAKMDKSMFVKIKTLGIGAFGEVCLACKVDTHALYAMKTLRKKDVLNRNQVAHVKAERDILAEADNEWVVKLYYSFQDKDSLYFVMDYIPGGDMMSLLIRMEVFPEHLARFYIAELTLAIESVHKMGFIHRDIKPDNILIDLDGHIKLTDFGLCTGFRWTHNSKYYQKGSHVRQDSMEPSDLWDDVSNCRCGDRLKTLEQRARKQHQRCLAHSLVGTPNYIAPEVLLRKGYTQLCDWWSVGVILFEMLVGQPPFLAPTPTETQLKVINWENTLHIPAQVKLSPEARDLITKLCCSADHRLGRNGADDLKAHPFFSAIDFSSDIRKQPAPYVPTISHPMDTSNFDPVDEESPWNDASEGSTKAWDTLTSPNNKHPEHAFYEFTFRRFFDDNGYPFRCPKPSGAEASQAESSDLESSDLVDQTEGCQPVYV

The target of assay [7] is Maternal embryonic leucine zipper kinase (Homo sapiens, UniProt Q14680).
Sequence of Maternal embryonic leucine zipper kinase (Q14680 whole entry): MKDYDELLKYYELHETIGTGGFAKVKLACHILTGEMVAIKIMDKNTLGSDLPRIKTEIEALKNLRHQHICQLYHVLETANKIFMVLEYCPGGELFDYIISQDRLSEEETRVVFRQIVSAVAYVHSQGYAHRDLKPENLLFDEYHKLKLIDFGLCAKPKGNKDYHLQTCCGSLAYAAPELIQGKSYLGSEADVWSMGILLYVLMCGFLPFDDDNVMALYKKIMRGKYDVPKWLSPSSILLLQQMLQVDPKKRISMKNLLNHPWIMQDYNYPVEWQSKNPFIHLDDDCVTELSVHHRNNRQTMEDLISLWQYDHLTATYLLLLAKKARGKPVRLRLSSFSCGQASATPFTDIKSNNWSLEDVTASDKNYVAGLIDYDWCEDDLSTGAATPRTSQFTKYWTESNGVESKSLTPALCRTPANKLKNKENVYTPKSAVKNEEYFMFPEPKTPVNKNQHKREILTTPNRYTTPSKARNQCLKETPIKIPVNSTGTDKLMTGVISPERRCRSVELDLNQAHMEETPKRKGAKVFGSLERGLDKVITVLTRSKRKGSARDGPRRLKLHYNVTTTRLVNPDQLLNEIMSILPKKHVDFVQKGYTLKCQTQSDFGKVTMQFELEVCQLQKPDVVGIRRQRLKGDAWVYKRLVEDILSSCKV

pKd: −log10 of the molar value.

Sequence of Phosphatidylinositol 4-phosphate 5-kinase type-1 alpha (Q99755 whole entry): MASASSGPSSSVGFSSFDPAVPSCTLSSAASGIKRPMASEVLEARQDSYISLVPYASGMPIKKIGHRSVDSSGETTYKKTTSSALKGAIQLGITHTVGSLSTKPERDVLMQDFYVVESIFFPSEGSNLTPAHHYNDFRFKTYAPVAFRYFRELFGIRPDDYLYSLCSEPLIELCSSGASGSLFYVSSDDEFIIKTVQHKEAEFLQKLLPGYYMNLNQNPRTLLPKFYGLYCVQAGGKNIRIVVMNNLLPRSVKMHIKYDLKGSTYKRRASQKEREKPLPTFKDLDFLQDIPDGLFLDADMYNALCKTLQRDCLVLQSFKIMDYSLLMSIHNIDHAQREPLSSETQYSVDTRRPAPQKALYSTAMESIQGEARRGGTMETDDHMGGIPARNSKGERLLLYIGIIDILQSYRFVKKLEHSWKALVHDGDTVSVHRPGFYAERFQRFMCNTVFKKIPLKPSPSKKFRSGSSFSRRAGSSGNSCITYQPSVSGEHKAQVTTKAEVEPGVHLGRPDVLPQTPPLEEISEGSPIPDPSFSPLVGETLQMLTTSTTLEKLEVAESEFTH
Sequence of Serine/threonine-protein kinase 10 (O94804 whole entry): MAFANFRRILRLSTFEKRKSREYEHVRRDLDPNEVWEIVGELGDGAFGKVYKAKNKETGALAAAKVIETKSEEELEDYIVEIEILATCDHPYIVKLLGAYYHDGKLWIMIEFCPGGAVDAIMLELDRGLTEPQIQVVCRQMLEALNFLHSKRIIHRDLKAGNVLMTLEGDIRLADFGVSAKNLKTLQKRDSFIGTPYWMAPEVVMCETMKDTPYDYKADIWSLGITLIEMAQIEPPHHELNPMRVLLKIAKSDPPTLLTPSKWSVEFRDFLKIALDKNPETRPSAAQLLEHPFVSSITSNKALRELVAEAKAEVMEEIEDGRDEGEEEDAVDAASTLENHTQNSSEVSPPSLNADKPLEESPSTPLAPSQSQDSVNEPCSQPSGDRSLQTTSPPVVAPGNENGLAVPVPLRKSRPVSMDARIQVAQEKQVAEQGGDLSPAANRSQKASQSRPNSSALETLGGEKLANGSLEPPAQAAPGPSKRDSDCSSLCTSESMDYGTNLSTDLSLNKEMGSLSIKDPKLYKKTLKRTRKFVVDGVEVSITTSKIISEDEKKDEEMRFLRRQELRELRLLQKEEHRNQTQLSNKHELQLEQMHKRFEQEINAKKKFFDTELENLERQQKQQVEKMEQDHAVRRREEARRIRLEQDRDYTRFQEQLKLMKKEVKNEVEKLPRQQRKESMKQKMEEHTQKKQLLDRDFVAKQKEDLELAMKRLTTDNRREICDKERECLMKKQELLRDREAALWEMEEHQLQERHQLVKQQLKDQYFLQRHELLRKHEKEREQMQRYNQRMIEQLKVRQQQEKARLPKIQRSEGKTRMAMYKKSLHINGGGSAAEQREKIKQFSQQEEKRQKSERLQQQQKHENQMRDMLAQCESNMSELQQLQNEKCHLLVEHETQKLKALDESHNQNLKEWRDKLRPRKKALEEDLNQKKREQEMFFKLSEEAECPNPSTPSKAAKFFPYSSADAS

What is called pKd is the negative decadic logarithm of the Kd, by convention in mol/L. A higher pKd goes with a small Kd. As to `COCC(=O)NC/C=C/c1ccc2ncnc(Nc3ccc(Oc4ccc(C)nc4)c(C)c3)c2c1` [CP-724714], the pKd in assay [1], in assay [2], in assay [3], in assay [4], in assay [5] and in assay [6] was < 5.00 each time. Besides, the pKd in assay [7] was < 5.00.
As to `Nc1nc(Nc2ccc(S(N)(=O)=O)cc2)nn1C(=O)c1c(F)cccc1F` [JNJ-7706621], the negative-log Kd (pKd) in assay [1] is 5.04; in assay [2], < 5.00; in assay [7], < 5.00.
For the compound `CCOc1cc2ncc(C#N)c(Nc3ccc(F)c(Cl)c3)c2cc1NC(=O)/C=C/CN(C)C` [PELITINIB], the pKd in assay [1], in assay [3], in assay [4], in assay [6] and in assay [7] was < 5.00 each time.
As to `Oc1ccc(-c2nc(-c3ccncc3)c(-c3ccc(F)cc3)[nH]2)cc1` [SB-202190], the negative-log Kd (pKd) in assay [1], in assay [2], in assay [3], in assay [4], in assay [5] and in assay [7] was < 5.00 each time.
In the case of `NC(=O)c1ccc(-c2nc(-c3ccc4c(c3)OCO4)c(-c3ccccn3)[nH]2)cc1` [SB-431542], the pKd in assay [1], in assay [2], in assay [3], in assay [4], in assay [5] and in assay [6] was < 5.00 in each case. In assay [7], the negative logarithm of the Kd (pKd) was < 5.00.

The values above are taken from ChEMBL document CHEMBL1150977, “A quantitative analysis of kinase inhibitor selectivity” (Nat Biotechnol, 2008).
